From PubChem BioAssay AID1259411 (Chemical Carcinogenesis Research Information System (CCRIS), 2018)
Activity calls are given as the source filed them. The rule behind the calls is not given here.

Tested on: rodent carcinogenicity bioassays, tumor incidence
Experiment: CCRIS carcinogenicity studies
Summary of the method: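 NCI-built, expert-reviewed records of carcinogenicity and related test outcomes (mutagenicity, tumor promotion/inhibition) compiled from published and report sources, historical span 1985-2011, not updated.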

CC1(C)[C@@H](O[C@H]2O[C@H](C(=O)O)[C@@H](O)[C@H](O)[C@H]2O[C@@H]2O[C@H](C(=O)O)[C@@H](O)[C@H](O)[C@H]2O)CC[C@]2(C)[C@H]3C(=O)C=C4[C@@H]5C[C@@](C)(C(=O)O)CC[C@]5(C)CC[C@@]4(C)[C@]3(C)CC[C@@H]12
carcinogen call (Species: MOUSE, Strain/Sex: B6C3F1/FEMALE, Route: ORAL, Dose: 0, 0.08, 0.15, 0.3% IN DRINKING WATER FOR 96 WK (STUDY DURATION: 110 WK), Dose: 0, 0.08, 0.15, 0.3% IN DRINKING WATER FOR 96 WK (STUDY DURATION: 110 WK)): inactive; negative
carcinogen call (Species: MOUSE, Strain/Sex: B6C3F1/MALE, Route: ORAL, Dose: 0, 0.04, 0.08, 0.15% IN DRINKING WATER FOR 96 WK (STUDY DURATION: 110 WK), Dose: 0, 0.04, 0.08, 0.15% IN DRINKING WATER FOR 96 WK (STUDY DURATION: 110 WK)): inactive; negative

Cc1cc(N=Nc2c(O)ccc3ccccc23)c(S(=O)(=O)O)cc1Cl
carcinogen call (Species: MOUSE, Strain/Sex: B6C3F1/FEMALE, Route: ORAL, Dose: 0, 1000, 2000 PPM IN DIET FOR 103 WK (STUDY DURATION: 103 WK), Dose: 0, 1000, 2000 PPM IN DIET FOR 103 WK (STUDY DURATION: 103 WK)): inactive; negative
carcinogen call (Species: MOUSE, Strain/Sex: B6C3F1/MALE, Route: ORAL, Dose: 0, 1000, 2000 PPM IN DIET FOR 103 WK (STUDY DURATION: 103 WK), Dose: 0, 1000, 2000 PPM IN DIET FOR 103 WK (STUDY DURATION: 103 WK)): inactive; negative
carcinogen call (Species: MOUSE, Strain/Sex: ICR/FEMALE, Route: DERMAL, Dose: 0, 1 MG IN 0.1 ML DISTILLED WATER 2/WK FOR A MEAN TOTAL DOSE OF 134.7 MG (STUDY DURATION: 18 MO)): inactive; negative
carcinogen call (Species: MOUSE, Strain/Sex: ICR/MALE, Route: DERMAL, Dose: 0, 1 MG IN 0.1 ML DISTILLED WATER 2/WK FOR A MEAN TOTAL DOSE OF 134.7 MG (STUDY DURATION: 18 MO)): inactive; negative
carcinogen call (Species: RAT, Strain/Sex: F344/FEMALE, Route: ORAL, Dose: 0, 1000, 3000 PPM IN DIET FOR 103 WK (STUDY DURATION: 103 WK), Dose: 0, 1000, 3000 PPM IN DIET FOR 103 WK (STUDY DURATION: 103 WK), Tumor Site: Type of Lesion: LIVER: NEOPLASTIC NODULE): equivocal
carcinogen call (Species: RAT, Strain/Sex: F344/FEMALE, Route: ORAL, Dose: 0, 1000, 3000 PPM IN DIET FOR 103 WK (STUDY DURATION: 104 WK), Dose: 0, 1000, 3000 PPM IN DIET FOR 103 WK (STUDY DURATION: 104 WK)): inactive; negative
carcinogen call (Species: RAT, Strain/Sex: F344/MALE, Route: ORAL, Dose: 0, 1000, 3000 PPM IN DIET FOR 103 WK (STUDY DURATION: 103 WK), Dose: 0, 1000, 3000 PPM IN DIET FOR 103 WK (STUDY DURATION: 103 WK), Tumor Site: Type of Lesion: SPLEEN: SARCOMA, LIVER: NEOPLASTIC NODULE): active; positive
carcinogen call (Species: RAT, Strain/Sex: F344/MALE, Route: ORAL, Dose: 0, 1000, 3000 PPM IN DIET FOR 103 WK (STUDY DURATION: 104 WK), Dose: 0, 1000, 3000 PPM IN DIET FOR 103 WK (STUDY DURATION: 104 WK), Tumor Site: Type of Lesion: SPLEEN OR PERITONEUM: SARCOMA): active; positive

ClCc1ccccn1
carcinogen call (Species: MOUSE, Strain/Sex: B6C3F1/FEMALE, Route: GAVAGE, Dose: 0, 125, 250 MG/KG IN AQ SOLN, Dose: 0, 125, 250 MG/KG IN AQ SOLN): inactive; negative
carcinogen call (Species: MOUSE, Strain/Sex: B6C3F1/MALE, Route: GAVAGE, Dose: 0, 125, 250 MG/KG IN AQ SOLN, Dose: 0, 125, 250 MG/KG IN AQ SOLN): inactive; negative
carcinogen call (Species: RAT, Strain/Sex: F344/FEMALE, Route: GAVAGE, Dose: 0, 75, 150 MG/KG IN AQ SOLN, Dose: 0, 75, 150 MG/KG IN AQ SOLN): inactive; negative
carcinogen call (Species: RAT, Strain/Sex: F344/MALE, Route: GAVAGE, Dose: 0, 75, 150 MG/KG IN AQ SOLN, Dose: 0, 75, 150 MG/KG IN AQ SOLN): inactive; negative

O=S(O)S(=O)(=O)O
carcinogen call (Species: RAT, Strain/Sex: WISTAR/FEMALE, Route: ORAL, Dose: 0, 0.125, 0.25, 0.5, 1, 2% IN DIET FOR 104 WK (STUDY DURATION: 104 WK), Dose: 0, 0.125, 0.25, 0.5, 1, 2% IN DIET FOR 104 WK (STUDY DURATION: 104 WK)): inactive; negative
carcinogen call (Species: RAT, Strain/Sex: WISTAR/FEMALE, Route: ORAL, Dose: 0, 0.125, 0.25, 0.5, 1, 2% IN DIET FOR 104 WK TO OFFSPRING OF RATS ADMINISTERED THE SAME DOSES IN THEIR DIETS (STUDY DUR, Dose: 0, 0.125, 0.25, 0.5, 1, 2% IN DIET FOR 104 WK TO OFFSPRING OF RATS ADMINISTERED THE SAME DOSES IN THEIR DIETS (STUDY DUR): inactive; negative
carcinogen call (Species: RAT, Strain/Sex: WISTAR/MALE, Route: ORAL, Dose: 0, 0.125, 0.25, 0.5, 1, 2% IN DIET FOR 104 WK (STUDY DURATION: 104 WK), Dose: 0, 0.125, 0.25, 0.5, 1, 2% IN DIET FOR 104 WK (STUDY DURATION: 104 WK)): inactive; negative
carcinogen call (Species: RAT, Strain/Sex: WISTAR/MALE, Route: ORAL, Dose: 0, 0.125, 0.25, 0.5, 1, 2% IN DIET FOR 104 WK TO OFFSPRING OF RATS ADMINISTERED THE SAME DOSES IN THEIR DIETS (STUDY DUR, Dose: 0, 0.125, 0.25, 0.5, 1, 2% IN DIET FOR 104 WK TO OFFSPRING OF RATS ADMINISTERED THE SAME DOSES IN THEIR DIETS (STUDY DUR): inactive; negative

c1ccc2nc3ccc4ccccc4c3cc2c1
carcinogen call (Species: RAT, Strain/Sex: OSBORNE-MENDEL/FEMALE, Route: LUNG IMPLANT, Dose: 0, 0.2, 1.0, 5.0 MG IN BEESWAX/TRICAPRYLIN (STUDY DURATION: LIFETIME), Dose: 0, 0.2, 1.0, 5.0 MG IN BEESWAX/TRICAPRYLIN (STUDY DURATION: LIFETIME)): inactive; negative

C=CCc1ccc(O)c(OC)c1
carcinogen call (Species: MOUSE, Strain/Sex: B6C3F1/FEMALE, Route: ORAL, Dose: 0, 3000, 6000 PPM IN DIET FOR 103 WK (STUDY DURATION: 103 WK), Dose: 0, 3000, 6000 PPM IN DIET FOR 103 WK (STUDY DURATION: 103 WK), Tumor Site: Type of Lesion: LIVER: HEPATOCELLULAR ADENOMA OR CARCINOMA): equivocal
carcinogen call (Species: MOUSE, Strain/Sex: B6C3F1/MALE, Route: ORAL, Dose: 0, 3000, 6000 PPM IN DIET FOR 103 WK (STUDY DURATION: 103 WK), Dose: 0, 3000, 6000 PPM IN DIET FOR 103 WK (STUDY DURATION: 103 WK), Tumor Site: Type of Lesion: LIVER: HEPATOCELLULAR ADENOMA, HEPATOCELLULAR CARCINOMA): equivocal
carcinogen call (Species: RAT, Strain/Sex: F344/FEMALE, Route: ORAL, Dose: 0, 6000, 12500 PPM IN DIET FOR 103 WK (STUDY DURATION: 103 WK), Dose: 0, 6000, 12500 PPM IN DIET FOR 103 WK (STUDY DURATION: 103 WK)): inactive; negative
carcinogen call (Species: RAT, Strain/Sex: F344/MALE, Route: ORAL, Dose: 0, 3000, 6000 PPM IN DIET FOR 103 WK (STUDY DURATION: 103 WK), Dose: 0, 3000, 6000 PPM IN DIET FOR 103 WK (STUDY DURATION: 103 WK)): inactive; negative

Cc1cc2ccccc2c2ccc3c(c12)C=C[C@@H](O)[C@@H]3O
carcinogen call (Species: MOUSE, Strain/Sex: ICR/FEMALE, Route: INTRAPERITONEAL, Dose: 8 NMOL/5 µL DMSO ON DAY 1, 16 NMOL/10 µL ON DAY 8, AND 32 NMOL/20 µL ON DAY 15 OF AGE (STUDY DURATION: 35 WK), Tumor Site: Type of Lesion: LUNG: TUMORS): active; positive
carcinogen call (Species: MOUSE, Strain/Sex: ICR/MALE, Route: INTRAPERITONEAL, Dose: 8 NMOL/5 µL DMSO ON DAY 1, 16 NMOL/10 µL ON DAY 8, AND 32 NMOL/20 µL ON DAY 15 OF AGE (STUDY DURATION: 35 WK), Tumor Site: Type of Lesion: LUNG: TUMORS, LIVER: TUMORS): active; positive

CCn1c2ccccc2c2ccccc21
carcinogen call (Species: MOUSE, Strain/Sex: CD-1/FEMALE, Route: INTRAPERITONEAL, Dose: 0, 1.75 UMOL/MOUSE (TOTAL DOSE) ADMINISTERED DURING DAYS 1, 8, AND 15 OF LIFE (STUDY DURATION: 52 WK)): inactive; negative
carcinogen call (Species: MOUSE, Strain/Sex: CD-1/MALE, Route: INTRAPERITONEAL, Dose: 0, 1.75 UMOL/MOUSE (TOTAL DOSE) ADMINISTERED DURING DAYS 1, 8, AND 15 OF LIFE (STUDY DURATION: 52 WK)): inactive; negative
